The structures appear in SMILES notation. Read-outs that look alike come from different tables or passages of the source.

In test [1] the target is FLNA pentapeptide of SEQ ID NO: 1 (Bn-VAKGL) (Homo sapiens, UniProt P21333). The experiment in a line: FITC-NLX-based FLNA screening assay (inhibition of FITC-naloxone binding to Bn-VAKGL on streptavidin plates). The conditions noted are these: 10 nM FITC-NLX.
Another test deals with mu opiate receptor (MOR). The experiment in a line: MOR agonist activity using [35S]GTPγS binding assay in striatal membranes. The format is biochemical. The conditions noted are these: for MOR agonist activity ([35S]GTPγS binding), FLNA-Binding Compound as Agonist 1 μM + BFNA: 1 μM compound + 1 μM β-funaltrexamine. Summed up:
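Striatal membranes (200 μg) were preincubated 5 min at 30 °C in HEPES pH 7.5 with 100 mM NaCl, 1 mM MgCl2 and 0.5 nM [35S]GTPγS, then 5 min more with 0.1–10 μM compound. Gαo was immunoprecipitated and bound radioactivity counted by scintillation.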

[2] abbreviates: read-out: Percent Binding Inhibition, FLNA-binding compound 0.01 μM.
[3] abbreviates: read-out: Percent Binding Inhibition, FLNA-binding compound 0.1 μM.
[4] abbreviates: read-out: Percent Binding Inhibition, FLNA-binding compound 1 μM.
Where [5] appears, read: 0.1 μM compound relative to DAMGO.
Setting [6] is: 1 μM compound + BFNA relative to DAMGO + BFNA.
The mark [7] stands for this setting: 1 μM compound relative to DAMGO.
The mark [8] stands for this setting: FLNA-binding compound 0.01 μM, read-out: Percent Binding Inhibition.
Where [9] appears, read: FLNA-binding compound 0.1 μM, read-out: Percent Binding Inhibition.
[10] abbreviates: FLNA-binding compound 1 μM, read-out: Percent Binding Inhibition.

`COc1ccc(N2CCN(CC(O)COC3CC(C)CCC3C(C)C)CC2)c(OC)c1` (stereo not drawn) [Compound A0012]: the inhibition at 0.01 µM in test [1] (setting [2]) was found to be 39.7%. Besides, the inhibition at 0.1 µM in test [1] (setting [3]) came out at 49.6%. The inhibition at 1 µM in test [1] (setting [4]) amounted to 54.4%. For the same compound, in the test on mu opiate receptor (MOR) (0.1 μM compound), the “MOR agonist activity ([35S]GTPγS binding), FLNA-Binding Compound as Agonist 0.1 μM” value (shortened to “MOR agonist activity … as Agonist 0.1 μM”) is reported as 149.3%. Besides, the “% DAMGO (0.1 μM)” value in the test on mu opiate receptor (MOR) (setting [5]) is recorded as 99.9%. Further, in the test with mu opiate receptor (MOR) (1 μM compound), the “MOR agonist activity ([35S]GTPγS binding), FLNA-Binding Compound as Agonist 1 μM” value is reported as 185.7%. The “MOR agonist activity ([35S]GTPγS binding), FLNA-Binding Compound as Agonist 1 μM + BFNA” value (shortened to “MOR agonist activity … as Agonist 1 μM + BFNA”) in the test with mu opiate receptor (MOR) amounted to 122.4%. In addition, the “% DAMGO + BFNA” value in the test with mu opiate receptor (MOR) (setting [6]) is 461.9%. Moreover, the “% DAMGO (1 μM)” value with mu opiate receptor (MOR) (setting [7]) worked out at 80.7%.
With `COCOc1ccc(C(=O)CC2c3c(cc4c(c3OC)OCO4)CC[N+]2(C)C)cc1C` (stereo not drawn) [Compound B0041], the inhibition at 0.01 µM in test [1] (setting [2]) stood at 44%. Also, in test [1] (setting [3]), the inhibition at 0.1 µM was 46.8%. The inhibition at 1 µM in test [1] (setting [4]) was 52.8%. Besides, the “% DAMGO (0.1 μM)” value in the test with mu opiate receptor (MOR) (Series B, 0.1 μM compound, relative to DAMGO) was 39.3%. Besides, the “MOR agonist activity, percent [35S]GTPγS binding at the stated compound concentration” value with mu opiate receptor (MOR) (Series B, 0.1 μM compound, [35S]GTPγS binding to Gαo, striatal membranes) is reported as 61.6%; in the test on mu opiate receptor (MOR) (Series B, 1 μM compound + 1 μM β-FNA) it was 41.9%; in the test with mu opiate receptor (MOR) (Series B, 1 μM compound, [35S]GTPγS binding to Gαo, striatal membranes), 109.3%. Further, in the test on mu opiate receptor (MOR) (Series B, 1 μM compound + β-FNA, relative to DAMGO + BFNA), the “% DAMGO + BFNA” value is 128.5%. Further, in the test on mu opiate receptor (MOR) (Series B, 1 μM compound, relative to DAMGO), the “% DAMGO (1 μM)” value came out at 47.2%.
With `CC1CCC(C(C)C)C(OCC(O)CN2CCSCC2)C1` (stereo not drawn) [Compound A0003], the inhibition at 0.01 µM in test [1] (setting [2]) turned out to be 21.3%. Besides, the inhibition at 0.1 µM in test [1] (setting [3]) came out at 31.6%. Further, the inhibition at 1 µM in test [1] (setting [4]) came to 37.4%. In the test on mu opiate receptor (MOR) (0.1 μM compound), the “MOR agonist activity … as Agonist 0.1 μM” value is on record as 176.8%. In addition, in the test with mu opiate receptor (MOR) (setting [5]), the “% DAMGO (0.1 μM)” value is 118.3%. The “MOR agonist activity ([35S]GTPγS binding), FLNA-Binding Compound as Agonist 1 μM” value in the test on mu opiate receptor (MOR) (1 μM compound) turned out to be 276.0%. For the same compound, the “MOR agonist activity … as Agonist 1 μM + BFNA” value with mu opiate receptor (MOR) stood at 17.1%. Moreover, the “% DAMGO + BFNA” value in the test on mu opiate receptor (MOR) (setting [6]) was 64.5%. For the same compound, in the test with mu opiate receptor (MOR) (setting [7]), the “% DAMGO (1 μM)” value is 119.9%.
As to `O=C1CN(Cc2ccccc2)C2(CCN(CC3CC3)CC2)N1` [Compound C0125M], the inhibition at 0.01 µM in test [1] (setting [2]) came to 54.2%. Moreover, the inhibition at 0.1 µM in test [1] (setting [3]) came out at 59.7%. Also, the inhibition at 1 µM in test [1] (setting [4]) amounted to 63.3%. For the same compound, the “% DAMGO (0.1 μM)” value with mu opiate receptor (MOR) (Series C-2, 0.1 μM compound, relative to DAMGO) turned out to be 89.1%. In addition, the “MOR agonist activity, percent [35S]GTPγS binding at the stated compound concentration” value in the test on mu opiate receptor (MOR) (Series C-2, 0.1 μM compound, [35S]GTPγS binding to Gαo, striatal membranes) is reported as 168.6%; with mu opiate receptor (MOR) (Series C-2, 1 μM compound + 1 μM β-FNA) it was 159.7%; with mu opiate receptor (MOR) (Series C-2, 1 μM compound, [35S]GTPγS binding to Gαo, striatal membranes), 195.2%. The “% DAMGO + BFNA” value with mu opiate receptor (MOR) (Series C-2, 1 μM compound + β-FNA, relative to DAMGO + BFNA) was 329.3%. Moreover, in the test with mu opiate receptor (MOR) (Series C-2, 1 μM compound, relative to DAMGO), the “% DAMGO (1 μM)” value is 78.6%.
On to `CC1CN(CC(O)COC2CCCCC2)CC(C)O1` (stereo not drawn) [Compound A0017], for which, in test [1] (setting [8]), the inhibition at 0.01 µM stood at 29.8%. The inhibition at 0.1 µM in test [1] (setting [9]) came to 38.6%. In addition, the inhibition at 1 µM in test [1] (setting [10]) is 44%. Moreover, in the test with mu opiate receptor (MOR) (0.1 μM compound), the “MOR agonist activity … as Agonist 0.1 μM” value came out at 161.9%. Besides, in the test on mu opiate receptor (MOR) (setting [5]), the “% DAMGO (0.1 μM)” value was found to be 96.9%. Moreover, the “MOR agonist activity ([35S]GTPγS binding), FLNA-Binding Compound as Agonist 1 μM” value in the test with mu opiate receptor (MOR) (1 μM compound) was 246.0%. The “MOR agonist activity … as Agonist 1 μM + BFNA” value in the test on mu opiate receptor (MOR) was determined as 65.2%. Also, in the test with mu opiate receptor (MOR) (setting [6]), the “% DAMGO + BFNA” value came to 187.9%. In the test with mu opiate receptor (MOR) (setting [7]), the “% DAMGO (1 μM)” value came to 100.4%.
Consider `CC(=O)c1ccc(S(=O)(=O)N2CCC3(CC2)OCC(CCCCN(C)C)N3S(=O)(=O)c2ccc(C(C)=O)cc2)cc1` (stereo not drawn) [Compound C0080], for which the inhibition at 0.01 µM in test [1] (setting [8]) was 46.8%. In addition, in test [1] (setting [9]), the inhibition at 0.1 µM is 53.3%. Further, the inhibition at 1 µM in test [1] (setting [10]) amounted to 54.6%. For the same compound, the “% DAMGO (0.1 μM)” value with mu opiate receptor (MOR) (Series C-1, 0.1 μM compound, relative to DAMGO) is recorded as 112.1%. Besides, the “Concentration of FLNA-Binding Compound as Agonist 0.1 μM” value in the test on mu opiate receptor (MOR) (Series C-1, 0.1 μM compound, [35S]GTPγS binding to Gαo, striatal membranes) is 187.9%. In addition, the “Concentration of FLNA-Binding Compound as Agonist 1 μM + BFNA” value with mu opiate receptor (MOR) (Series C-1, 1 μM compound + 1 μM β-FNA) worked out at 167.1%. Further, the “% DAMGO + BFNA” value in the test on mu opiate receptor (MOR) (Series C-1, 1 μM compound + β-FNA, relative to DAMGO + BFNA) turned out to be 351.8%. Also, the “% DAMGO (1 μM)” value with mu opiate receptor (MOR) (Series C-1, 1 μM compound, relative to DAMGO) amounted to 92.4%. Also, the “Concentration of FLNA-Binding Compound as Agonist 1 μM” value in the test with mu opiate receptor (MOR) (Series C-1, 1 μM compound, [35S]GTPγS binding to Gαo, striatal membranes) was 205.4%.
Take `CC1CN(CC(O)COc2ccccc2C(C)C)CC(C)O1` (stereo not drawn) [Compound A0029]: the inhibition at 0.01 µM in test [1] (setting [8]) is 44.4%. In test [1] (setting [9]), the inhibition at 0.1 µM is 44.4%. Moreover, in test [1] (setting [10]), the inhibition at 1 µM is 50.8%. Also, the “MOR agonist activity … as Agonist 0.1 μM” value in the test on mu opiate receptor (MOR) (0.1 μM compound) was 173.8%. For the same compound, the “% DAMGO (0.1 μM)” value in the test on mu opiate receptor (MOR) (setting [5]) is 98.4%. Moreover, in the test on mu opiate receptor (MOR) (1 μM compound), the “MOR agonist activity ([35S]GTPγS binding), FLNA-Binding Compound as Agonist 1 μM” value is recorded as 206.5%. Moreover, the “MOR agonist activity … as Agonist 1 μM + BFNA” value in the test with mu opiate receptor (MOR) is reported as 22.3%. In the test on mu opiate receptor (MOR) (setting [6]), the “% DAMGO + BFNA” value was 84.8%. Moreover, in the test with mu opiate receptor (MOR) (setting [7]), the “% DAMGO (1 μM)” value was 81.2%.

Source of the values: patent US10363239B2, “Method for inhibiting growth of cancer cells” (Pain Therapeutics, Inc., priority 2013, dated 2019).
